Data reported in patent US11850238B2, “Use of a thienopyridone derivative in the treatment of adrenoleukodystrophy or adrenomyeloneuropathy” (POXEL, priority 2020, dated 2023).

Assays:
[1] = test system: AMN human patient-derived primary fibroblasts; assay: Hexacosanoic acid (VLCFA) level in AMN patient-derived fibroblasts, LC-MS; assay type: cell-based
Experimental: In order to compare the efficacy of PXL770 and metformin to lower very long chain fatty acids (VLCFA) in vitro, the study focuses on the level assessment of the hexacosanoic acid, which is the most prevalent VLCFA, in healthy control cells and in AMN human patient-derived primary fibroblasts. The cell lines were obtained from Coriell Cell Repositories. Fibroblasts were cultured in DMEM with 15% FBS. The cultures were split in 1:5 ratio. Fibroblasts from healthy patients were used as control. All treatments were in complete media containing fetal bovine serum (FBS, 15%). All cultured cells were maintained at 37° C. in 5% CO2.
VLCFA content was then measured as follows. Samples are adjusted to a final volume of 0.5-1 ml with LC-MS grade water and spiked with 10 ng of Lignoceric acid-d4 as an internal standard. The sample is acidified to pH 3-4 with dilute hydrochloric acid and extracted with isooctane-ethyl acetate (9:1) three times with equal volume. The extract is dried under nitrogen and the residue is reconstituted in methanol-water-ammonium acetate (75:25:10 mM).
Total fatty acids: After preparing the samples with internal standard as described above for free fatty acids, aqueous sodium hydroxide is added to a final concentration of 1 M. The mixture is incubated at 37° C. in dark under nitrogen for 3 h. The samples are then acidified, extracted, and reconstituted as described above.
LC-MS analysis of fatty acids: The reconstituted fatty acid extracts are subjected to HPLC on Targa C8 column (2×10 mm) using methanol-aqueous ammonium acetate (10 mM) solvent mixture. The column is eluted with a gradient of methanol (75 to 90%) over 8 min at a flow rate of 0.25 ml/min. The column eluent is directly introduced to mass analyzer (QTRAP5500) and monitored for fatty acids using published pseudo MRM method. Under these conditions, the VLCFA elute between 5 and 8 min. Each fatty acid is quantitated against the added internal standard.
The study planned different groups of patients. First, the evolution of hexacosanoic acid in fibroblasts is monitored in healthy control cells and in AMN human patient-derived primary fibroblasts; and in a second time a treatment of PXL770 was assigned to AMN human-derived primary fibroblasts in culture at different doses (PXL770: 0.1, 0.5, 1, 2, 3.5 and 5 μM; metformin: 100, 200, 300 and 400 μM) for one week and the level of hexacosanoic acid was measured.
The experiment described in Example 3 was reproduced with various thienopyridone compounds, namely: • PXL770: potassium 2-chloro-3-(5-hydroxytetralin-6-yl)-6-oxo-5-phenyl-7H-thieno[2,3-b]pyridin-4-olate • PXL700: 2-chloro-4-hydroxy-3-indan-5-yl-5-(3-pyridyl)-7H-thieno[2,3-b]pyridin-6-one • PXL702: 2-chloro-4-hydroxy-3-(4-hydroxyindan-5-yl)-5-phenyl-7H-thieno[2,3-b]pyridin-6-one • PXL695: 2-chloro-5-(3-fluorophenyl)-4-hydroxy-3-(4-hydroxyindan-5-yl)-7H-thieno[2,3-b]pyridin-6-one, • each tested at concentrations from 0.1 to 5 μM.
A one-way ANOVA with Dunnett's multiple comparison test was performed to assess the effect of PXL770 on brain's VLCFAs (**** p<0.0001, *** p<0.001). A Kruskal-Wallis test with Dunn's multiple comparison test was performed to assess the effect of PXL770 on plasma's VLCFAs (**** p<0.0001, […]).

ABCD1-KO mice = assay: In vivo X-ALD mouse, 90 days: VLCFA (C26:0) in spinal cord; conditions: male ABCD1-KO mice, 75 mg/kg oral gavage twice a day, FIG. 13
Experimental: Male ABCD1-KO mice (n=8) were treated with oral gavage of PXL770 (75 mg/kg) twice a day, every day for 90 days. Untreated ABCD1-KO mice (n=8) and wild-type (WT) mice (n=8) served as controls. Post-treatment mice were sacrificed and spinal cord was collected for VLCFA analysis. The analysis was performed according to the standardized protocols of the Lipidomics Core Facility and data are expressed as VLCFA μg/ml levels. Hexacosanoic acid (C26:0) was selected as representative for VLCFAs.

[2] = test system: ALD patient-derived lymphocytes; assay: Hexacosanoic acid (VLCFA) level in ALD patient-derived lymphocytes; assay type: cell-based, human
Experimental: After studies on cells from patients with the […] of ALD (AMN) the inventors replicated the same study method as in example 1 to analyze the effect of PXL770 on cells from X-ALD patients (severe inflammatory phenotype).
The experiments described in Examples 3 and 7 were performed with metformin by the same lab and described by Singh et al. in Journal of Neurochemistry, 2016; 138, 86-100.

ABCD2 [3] = assay: Western blot of ABCD2 expression in AMN fibroblasts; assay type: cell-based, human; conditions: AMN fibroblasts, 5, 10, 25 μM, vs control and untreated AMN fibroblasts; FIG. 2
Experimental: More specifically, protein extraction was performed as follows.
(§1) The cells were washed with cold Tris-buffered saline (20 mM Trizma base and 137 mM NaCl, pH 7.5) and lysed in 1×SDS sample-loading buffer (62.5 mM Trizma base, 2% [w/v] SDS, 10% glycerol), and after sonication and centrifugation at 15,000 g for 5 min, the supernatant was used for the immunoblot assay. The protein concentration of samples was determined with the detergent compatible protein assay reagent (Bio-Rad) using BSA as the standard. The sample was boiled for 3 min with 0.1 volumes of 10% β mercaptoethanol and 0.5% bromphenol blue mix. Then, 40 μg of total cellular protein was resolved by electrophoresis on 8 or 12% polyacrylamide gels, electrotransferred and blocked with Tween 20-containing Tris-buffered saline (TBST; 10 mM Trizma base, pH 7.4, 1% Tween 20, and 150 mM NaCl) with 5% skim milk. After incubation with antibodies against ABCD2, ABCD3, and (β-actin at 4^0 overnight, the membranes were then washed with TBST and incubated with horseradish peroxidase-conjugated anti-rabbit or mouse IgG for 1 h at room temperature. The membranes were detected by autoradiography using ECL-plus (Amersham Biosciences) after washing with TBST buffer.
The experiments described in Examples 4 and 6 were performed with metformin by the same lab and described by Singh et al. in Journal of Neurochemistry, 2016; 138, 86-100.

ABCD2 [4] = assay: Western blot of ABCD2 expression in ALD-KO mouse brain cortex mixed glial cells; assay type: cell-based; conditions: vs non-treated, FIG. 4
Experimental: as §1
The same experimental protocol as in example 4 was performed for ALD-KO mouse brain cortex mixed glial cells. This model is mainly a model for AMN. […]

[5] = ALD lymphocytes, increasing concentrations, FIG. 5

O=c1[nH]c2sc(Cl)c(-c3ccc4c(c3O)CCCC4)c2c([O-])c1-c1ccccc1.[K+] [PXL770, monohydrate potassium salt of 2-chloro-4-hydroxy-3-(5-hydroxytetralin-6-yl)-5-phenyl-7H-thieno[2,3-b]pyridin-6-one]
potency and efficacy compared to metformin ([1]; AMN fibroblasts, PXL770 0.1-5 μM vs metformin 100-400 μM, one week, FIG. 10): much higher potency and efficacy | level of hexacosanoic acid ([1]; AMN fibroblasts, increasing doses 0.1-5 μM, one week, FIG. 10): decreases | VLCFA levels ([1]; AMN patient-derived fibroblasts, concentrations from 0.1 to 5 μM, FIG. 14): comparable decrease | VLCFA accumulation in the spinal cord (ABCD1-KO mice): significantly reduces | level of hexacosanoic acid [2, 5]: decreases | level of hexacosanoic acid compared to healthy controls [2, 5]: same level as that present in lymphocytes of healthy controls | VLCFA content, normalization ([2]; ALD patient cells, 5 μM): normalization effect | expression of ABCD2 (Western blot) (ABCD2 [3]): overexpression | expression of ABCD2 (Western blot) (ABCD2 [4]): overexpression
